Source: patent US8685974B2 (Bayer CropScience AG, priority 2009, dated 2014)
Like-named read-outs stand apart in the source and are kept apart here. Marks after values point to notes of the source that are not given here.

Columns and labels:
[1] = tested on: Leptosphaeria nodorum; test: Leptosphaeria nodorum test (wheat) / protective; assay type: in vivo; conditions: 500 ppm active compound, protective spray, evaluated 7-9 days after inoculation
Procedure: Leptosphaeria nodorum Test (Wheat)/Protective
Solvent: 49 parts by weight of N,N-dimethylformamide
Emulsifier: 1 part by weight of alkylaryl polyglycol ether
To produce a suitable preparation of active compound, 1 part by weight of active compound is mixed with the stated amounts of solvent and emulsifier, and the concentrate is diluted with water to the desired concentration.
To test for protective activity, young wheat plants are sprayed with the preparation of active compound at the stated application rate. […] The plants are then placed in a greenhouse at 90% rel. atmospheric humidity and a temperature of 22° C.
Evaluation is carried out 7-9 days after the inoculation. 0% means an efficacy which corresponds to that of the control, whereas an efficacy of 100% means that no infection is observed.

[2] = tested on: Alternaria solani; test: Alternaria test (tomato) / protective; assay type: in vivo; conditions: 500 ppm active compound, protective spray, evaluated 7 days after inoculation
Method in brief: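 Young tomato plants sprayed protectively with compound formulated in DMF with alkylaryl polyglycol ether emulsifier and diluted in water to the application rate. After inoculation, plants held at 96% rel. humidity and 20° C. Efficacy scored 7 days post-inoculation: 0% equals untreated control, 100% no infection.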

[3] = tested on: Pyrenophora teres; test: In vivo test on Pyrenophora teres (barley net blotch); conditions: dose of 500 ppm; barley plants; grading 12 days after contamination
Procedure: In Vivo Test on Pyrenophora teres (Barley Net Blotch)
The active ingredients tested are prepared by homogenization in a mixture of acetone/Tween/DMSO, then diluted with water to obtain the desired active material concentration.
Barley plants (Plaisant variety), sown on a 50/50 peat soil-pozzolana substrate in starter cups and grown at 12° C., are treated at the 1-leaf stage (10 cm tall) by spraying with the active ingredient prepared as described above.
Plants, used as controls, are treated with an aqueous solution not containing the active material.
After 24 hours, the plants are contaminated by spraying them with an aqueous suspension of Pyrenophora teres spores (12,000 spores per ml). The spores are collected from a 12-day-old culture. The contaminated barley plants are incubated for 24 hours at about 20° C. and at 100% relative humidity, and then for 12 days at 80% relative humidity.
Grading is carried out 12 days after the contamination, in comparison with the control plants.

[4] = tested on: Fusarium graminearum; assay type: cell-based; conditions: 50 μM; for % Inhibition of DON/AcDON at 50 μM: 7 days at 28° C.
[5] = physchem; conditions: pH 2.7

## CC(C)n1cc(-c2ccnc(NC3COC3)n2)c(-c2ccc(Cl)s2)n1 [Example 179]
[1]
  efficacy: 80%
[2]
  efficacy: 80%
pH 2.3
  log p: 2.7^[a]
[3]
  protection: 90%

## CCC(=O)Nc1cc(-c2cn(C(C)C)nc2-c2cccs2)ccn1 [Example 175]
[1]
  efficacy: 70%
[2]
  efficacy: 80%
pH 2.7
  log p: 2.01^[b]
pH 7.8
  log p: 2.61^[c];
[3]
  protection: 90%

## CCC(CC)n1cc(-c2ccncc2)c(-c2ccc(Br)s2)n1 [Example 392]
[1]
  efficacy: 70%
[2]
  efficacy: 100%
pH 2.7
  log p: 2.39^[b]
  logP value of the minor isomer: (2.22)
[4]
  % Inhibition of fungal growth at 50 μM: 97%
  % Inhibition of DON/AcDON at 50 μM: 99%

## CCC(=O)Nc1nccc(-c2cn(C(C)C)nc2-c2ccc(Cl)s2)n1 [Example 172]
[1]
  efficacy: 89%
pH 2.3
  log p: 3.04^[a]
[3]
  protection: 100%

## CC(=O)N(C(C)=O)c1nccc(-c2cn(C(C)C)nc2-c2ccc(Cl)s2)n1 [Example 171]
[1]
  efficacy: 89%
pH 2.3
  log p: 3.33^[a]
[3]
  protection: 95%

## CCC(C)n1cc(-c2ccnc(NC(=O)C(C)C)n2)c(-c2ccc(Cl)s2)n1 (centres unmarked) [Example 173]
[1]
  efficacy: 89%
pH 2.3
  log p: 3.72^[a]
[3]
  protection: 95%

## CC(=O)Nc1cc(-c2cn(CC(C)C)nc2-c2ccc(Cl)s2)cc[n+]1[O-] [Example 80]
[1]
  efficacy: 70%
[2]
  efficacy: 94%
pH 2.3
  log p: 2.86^[a]

## COc1ccc(Cn2cc(-c3ccncc3)c(-c3ccc(Cl)s3)n2)cc1 [Example 104]
[1]
  efficacy: 80%
pH 2.7
  log p: 2.74^[b]

## CC1(Cn2cc(-c3ccncc3)c(-c3ccc(Br)s3)n2)CC1(Cl)Cl (centres unmarked) [Example 386]
[1]
  efficacy: 80%
[2]
  efficacy: 89%
pH 2.7
  log p: 2.75^[b]
  logP value of the minor isomer: (2.50)
[4]
  % Inhibition of fungal growth at 50 μM: 0%
  % Inhibition of DON/AcDON at 50 μM: 99%

## CCC(C)n1cc(-c2ccnc(Cl)c2)c(-c2ccc(Cl)s2)n1 (centres unmarked) [Example 318]
[1]
  efficacy: 70%
pH 2.7
  log p: 4.89^[b]

## CC(C)Nc1nccc(-c2cn(C(C)C)nc2-c2ccc(Cl)s2)n1 [Example 181]
[1]
  efficacy: 70%
pH 2.3
  log p: 2.82^[a]
[3]
  protection: 80%

## C#CCNc1nccc(-c2cn(C(C)C)nc2-c2ccc(Cl)s2)n1 [Example 180]
[1]
  efficacy: 70%
pH 2.3
  log p: 3.25^[a]
[3]
  protection: 80%

## CC(C)Cn1cc(-c2ccnc(N)n2)c(-c2ccc(Cl)s2)n1 [Example 95]
[1]
  efficacy: 80%
[2]
  efficacy: 70%
pH 2.3
  log p: 2.35^[a]

## FCCn1cc(-c2ccncc2)c(-c2ccc(Br)s2)n1 [Example 388]
[1]
  efficacy: 80%
[2]
  efficacy: 100%
pH 2.7
  log p: 1.49^[b]
  logP value of the minor isomer: (1.34)
[4]
  % Inhibition of fungal growth at 50 μM: 100%
  % Inhibition of DON/AcDON at 50 μM: 99%

## FC(F)Cn1cc(-c2ccncc2)c(-c2ccc(Br)s2)n1 [Example 384]
[1]
  efficacy: 90%
[2]
  efficacy: 94%
pH 2.7
  log p: 1.67^[b]
  logP value of the minor isomer: (1.51)
[4]
  % Inhibition of fungal growth at 50 μM: 100%
  % Inhibition of DON/AcDON at 50 μM: 99%

## CCn1cc(-c2ccncc2)c(-c2cccs2)n1 [4-[1-Ethyl-3-(2-thienyl)-1H-pyrazol-4-yl]pyridine]
[5]
  log p: 0.75

## CC(C)Cn1cc(-c2ccnc(Cl)c2)c(-c2ccc(Cl)s2)n1 [2-Chloro-4-[1-isobutyl-3-(5-chloro-2-thienyl)-1H-pyrazol-4-yl]pyridine]
[5]
  log p: 4.85

## Clc1ccc(-c2n[nH]c(C3CC3)c2-c2ccncc2)s1 [4-[3-(5-Chloro-2-thienyl)-5-cyclopropyl-1H-pyrazol-4-yl]pyridine]
[5]
  log p: 1.29

## CCC(C)n1cc(-c2ccnc(C#N)c2)c(-c2ccc(Cl)s2)n1 (centres unmarked) [2-Cyano-4-[1-sec-butyl-3-(5-chloro-2-thienyl)-1H-pyrazol-4-yl]pyridine]
[5]
  log p: 4.41

## CC(C)Cn1cc(-c2ccnc(N(C(=O)C3CC3)C(=O)C3CC3)c2)c(-c2ccc(Cl)s2)n1 [N-{4-[3-(5-chloro-2-thienyl)-1-isobutyl-1H-pyrazol-4-yl]pyridin-2-yl}-N-(cyclopropylcarbonyl)cyclopropanecarboxamide]
[5]
  log p: 4.75

## CCC(C)n1cc(I)c(-c2cc(C)cs2)n1 (centres unmarked) [1-sec-Butyl-4-iodo-3-(4-methyl-2-thienyl)-1H-pyrazole]
[5]
  log p: 4.79

## CCn1nccc1-c1cccs1 [1-Ethyl-5-(2-thienyl)-1H-pyrazole]
[5]
  log p: 2.18

## Cc1c(Br)c(-c2ccc(Cl)s2)nn1C [4-Bromo-3-(5-chloro-2-thienyl)-1,5-dimethyl-1H-pyrazole]
[5]
  log p: 3.92

## CCCn1ccc(-c2cccs2)n1 [1-Propyl-3-(2-thienyl)-1H-pyrazole]
[5]
  log p: 2.58

## Cc1c(Br)c(-c2ccc(Cl)s2)nn1C(C)C [4-Bromo-3-(5-chloro-2-thienyl)-1-isopropyl-5-methyl-1H-pyrazole]
[5]
  log p: 5.35

## CCCn1ccc(-c2cc(C)cs2)n1 [3-(4-Methyl-2-thienyl)-1-propyl-1H-pyrazole]
[5]
  log p: 3.07

## CCCc1cc(-c2cccs2)n(C)n1 [1-Methyl-3-propyl-5-(2-thienyl)-1H-pyrazole]
[5]
  log p: 2.9

## CC(C)n1cc(I)c(-c2cccs2)n1 [4-Iodo-1-isopropyl-3-(2-thienyl)-1H-pyrazole]
[5]
  log p: 3.71

## Fc1ccc(-c2n[nH]cc2-c2ccncc2)s1 [4-[3-(5-Fluoro-2-thienyl)-1H-pyrazol-4-yl]pyridine]
[5]
  log p: 0.57

## CCC(C)n1ncc(I)c1-c1cc(Cl)cs1 (centres unmarked) [1-sec-Butyl-5-(4-chloro-2-thienyl)-4-iodo-1H-pyrazole]
[5]
  log p: 4.72

## O=C(Cc1ccnc(Cl)c1)c1ccc(Cl)s1 [1-(5-chloro-2-thienyl)-2-(2-chloropyridin-4-yl)ethanone]
[5]
  log p: 2.94

## CCC(C)n1ccc(-c2cc(C)cs2)n1 (centres unmarked) [1-sec-Butyl-3-(4-methyl-2-thienyl)-1H-pyrazole]
[5]
  log p: 3.63

## CC(=O)N(C(C)=O)c1cc(-c2cn(C(C)C)nc2-c2ccc(Cl)s2)ccn1 [N-Acetyl-N-{4-[3-(5-chloro-2-thienyl)-1-isopropyl-1H-pyrazol-4-yl]pyridin-2-yl}acetamide]
[5]
  log p: 3.33

## CCCc1nn(C)c(-c2sccc2C)c1I [4-Iodo-1-methyl-5-(3-methyl-2-thienyl)-3-propyl-1H-pyrazole]
[5]
  log p: 4.27

## CCCc1cc(-c2sccc2C)nn1C [1-Methyl-3-(3-methyl-2-thienyl)-5-propyl-1H-pyrazole]
[5]
  log p: 3.34

## CCn1cc(-c2ccnc(NC(=O)C3CCC3)c2)c(-c2ccc(Cl)s2)n1 [Example 269]
[1]
  efficacy: 70%
pH 2.7
  log p: 2.92^[b]
[4]
  % Inhibition of fungal growth at 50 μM: 58%
  % Inhibition of DON/AcDON at 50 μM: 87%
[3]
  protection: 80%

## CCC(C)n1cc(-c2ccnc(C#CC3CC3)c2)c(-c2ccc(Cl)s2)n1 (centres unmarked) [4-[1-sec-Butyl-3-(5-chloro-2-thienyl)-1H-pyrazol-4-yl]-2-(cyclopropylethynyl)pyridine]
[5]
  log p: 4.56

## CCC(C)n1nc(-c2ccc(Cl)s2)c(-c2ccncc2)c1F (centres unmarked) [4-[3-(5-Chloro-2-thienyl)-5-fluoro-1-secbutyl-1H-pyrazol-4-yl]pyridine]
[5]
  log p: 2.61

## CCC(C)n1nccc1-c1cccs1 (centres unmarked) [1-sec-Butyl-5-(2-thienyl)-1H-pyrazole]
[5]
  log p: 2.97
